Test results as given in patent publication US7417156B2, “Orally active, antimalarial, anticancer, artemisinin-derived trioxane dimers” (Johns Hopkins University, priority 2002, dated 2008).

Experiments:
CCRF-CEM = assay: NCI 60 cell line panel screen (SRB); type: cell-based, human; conditions: CCRF-CEM (Leukemia); TGI: PG=0
HL-60(TB) = assay: NCI 60 cell line panel screen (SRB); type: cell-based, human; conditions: HL-60(TB) (Leukemia); TGI: PG=0
A549/ATCC = assay: NCI 60 cell line panel screen (SRB); type: cell-based, human
EKVX = assay: NCI 60 cell line panel screen (SRB); type: cell-based, human
HOP-92 = assay: NCI 60 cell line panel screen (SRB); type: cell-based, human
NCI-H23 = assay: NCI 60 cell line panel screen (SRB); type: cell-based, human; conditions: NCI-H23 (Non-Small Cell Lung Cancer); TGI: PG=0
NCI-H322M = type: cell-based
NCI-H522 = assay: NCI 60 cell line panel screen (SRB); type: cell-based, human
COLO 205 = assay: NCI 60 cell line panel screen (SRB); type: cell-based, human; conditions: COLO 205 (Colon Cancer); TGI: PG=0
HCT-15 = assay: NCI 60 cell line panel screen (SRB); type: cell-based, human; conditions: HCT-15 (Colon Cancer); TGI: PG=0
HT29 = assay: NCI 60 cell line panel screen (SRB); type: cell-based, human; conditions: HT29 (Colon Cancer); TGI: PG=0
KM12 = assay: NCI 60 cell line panel screen (SRB); type: cell-based, human; conditions: KM12 (Colon Cancer); TGI: PG=0
M14 = assay: NCI 60 cell line panel screen (SRB); type: cell-based, human
SK-MEL-28 = assay: NCI 60 cell line panel screen (SRB); type: cell-based, human
UACC-257 = assay: NCI 60 cell line panel screen (SRB); type: cell-based, human
IGROVI = assay: NCI 60 cell line panel screen (SRB); type: cell-based, human
OVCAR-5 = assay: NCI 60 cell line panel screen (SRB); type: cell-based, human; conditions: OVCAR-5 (Ovarian Cancer); TGI: PG=0
786-0 = assay: NCI 60 cell line panel screen (SRB); type: cell-based, human
TK-10 = assay: NCI 60 cell line panel screen (SRB); type: cell-based, human
MCF7 = assay: NCI 60 cell line panel screen (SRB); type: cell-based, human
NCI/ADR-RES = assay: NCI 60 cell line panel screen (SRB); type: cell-based, human
HS 578T = assay: NCI 60 cell line panel screen (SRB); type: cell-based, human
BT-549 = assay: NCI 60 cell line panel screen (SRB); type: cell-based, human; conditions: BT-549 (Breast Cancer); TGI: PG=0
T-47D = assay: NCI 60 cell line panel screen (SRB); type: cell-based, human; conditions: T-47D (Breast Cancer); TGI: PG=0

`CC1CCC2C(C)C(CC(COCC(=O)O)CC3OC4OC5(C)CCC6C(C)CCC(C3C)C46OO5)OC3OC4(C)CCC1C32OO4` (centres unmarked) [Compound 12b, bis-trioxane O-acetic acid] showed a Log10TGI50 (CCRF-CEM) greater than −4.30 log10M, a Log10TGI50 (HL-60(TB)) of less than −8.30 log10M and a Log10TGI50 (A549/ATCC; A549/ATCC (Non-Small Cell Lung Cancer), TGI: PG=0) greater than −4.30 log10M. The Log10GI50 (A549/ATCC; Non-Small Cell Lung Cancer, A549/ATCC) was greater than −4.30, the Log10TGI50 (EKVX; EKVX (Non-Small Cell Lung Cancer), TGI: PG=0) was greater than −4.30 log10M and the Log10GI50 (EKVX; Non-Small Cell Lung Cancer, EKVX) was greater than −4.30. The Log10TGI50 (HOP-92; HOP-92 (Non-Small Cell Lung Cancer), TGI: PG=0) was greater than −4.30 log10M, the Log10GI50 (HOP-92; Non-Small Cell Lung Cancer, HOP-92) was −7.00 and the Log10TGI50 (NCI-H23) was greater than −4.30 log10M. The Log10TGI50 (NCI-H322M; NCI-H322M (Non-Small Cell Lung Cancer), TGI: PG=0) was greater than −4.30 log10M, the Log10GI50 (NCI-H322M; Non-Small Cell Lung Cancer, NCI-H322M) was −5.03 and the Log10TGI50 (NCI-H522; NCI-H522 (Non-Small Cell Lung Cancer), TGI: PG=0) was greater than −4.30 log10M. For the same compound, the Log10GI50 (NCI-H522; Non-Small Cell Lung Cancer, NCI-H522) was greater than −4.30, the Log10TGI50 (COLO 205) was −5.28 log10M and the Log10TGI50 (HCT-15) was −5.00 log10M. It also gave a Log10TGI50 (HT29) greater than −4.30 log10M, a Log10TGI50 (KM12) of less than −8.30 log10M and a Log10TGI50 (M14; M-14 (Melanoma), TGI: PG=0) greater than −4.30 log10M. It also gave a Log10GI50 (M14; Melanoma, M14) of −6.68, a Log10GI50 (SK-MEL-28; Melanoma, SK-MEL-28) of −4.92 and a Log10TGI50 (SK-MEL-28; SK-MEL-28 (Melanoma), TGI: PG=0) greater than −4.30 log10M. For the same compound, the Log10GI50 (UACC-257; Melanoma, UACC-257) was greater than −4.30, the Log10TGI50 (UACC-257; UACC-257 (Melanoma), TGI: PG=0) was greater than 4.30 log10M and the Log10TGI50 (IGROVI; IGROVI (Ovarian Cancer), TGI: PG=0) was greater than −4.30 log10M. It also gave a Log10GI50 (IGROVI; Ovarian Cancer, IGROVI) of −5.06, a Log10TGI50 (OVCAR-5) of −6.39 log10M and a Log10TGI50 (786-0; 786-0 (Renal Cancer), TGI: PG=0) greater than −4.30 log10M. The Log10GI50 (786-0; Renal Cancer, 786-0) was −6.59, the Log10GI50 (TK-10; Renal Cancer, TK-10) was −7.22 and the Log10TGI50 (TK-10; TK-10 (Renal Cancer), TGI: PG=0) was −5.22 log10M. It also gave a Log10GI50 (MCF7; Breast Cancer, MCF7) of −7.37, a Log10TGI50 (MCF7; MCF7 (Breast Cancer), TGI: PG=0) greater than −4.30 log10M and a Log10GI50 (NCI/ADR-RES; Breast Cancer, NCI/ADR-RES) of −6.45. For the same compound, the Log10TGI50 (NCI/ADR-RES; NCI/ADR-RES (Breast Cancer), TGI: PG=0) was greater than −4.30 log10M, the Log10GI50 (HS 578T; Breast Cancer, HS 578T) was greater than −4.30 and the Log10TGI50 (HS 578T; HS 578T (Breast Cancer), TGI: PG=0) was greater than −4.30 log10M. The Log10TGI50 (BT-549) was greater than −4.30 log10M and the Log10TGI50 (T-47D) was greater than −4.30 log10M.
